Drawing on US20100152270A1, “PESTICIDE COMPOSITION COMPRISING A STRIGOLACTONE DERIVATIVE AND A FUNGICIDE COMPOUND” (priority 2007, published 2010), this text covers Efficacy in % for six compounds.

What all share (type): cell-based
One test deals with Gibberella zeae. To be noted: 3 days incubation, 100% = no fungal growth.
The test system of a further test is Botrytis cinerea. The experiment in a line: Botrytis cinerea microtest in liquid medium (PDB), microtitre plates, optical density. The conditions noted are these: 5 days incubation, 100% = no fungal growth.
The test system of a further test is Rhizoctonia solani. The test can be described thus: Rhizoctonia solani microtest in liquid medium (PDB), microtitre plates, optical density. The conditions noted are these: 5 days incubation, 100% = no fungal growth.
In another test the test system is Pyricularia oryzae. The conditions noted are these: 3 days incubation, 100% = no fungal growth.

Read-outs that look alike come from different tables or passages of the source.

In the test on Gibberella zeae (0.001 ppm), `CC(C)(C)C(O)(CCc1ccc(Cl)cc1)Cn1cncn1` (stereo not shown) [Tebuconazole] yielded an Efficacy in % of 23%.
Consider `CC1=CC(O/C=C2/C(=O)OC3c4ccccc4CC23)OC1=O` (stereo not shown) [Compound A], for which the Efficacy in % in the test with Botrytis cinerea (0.0000001 ppm) came out at 8%; with Botrytis cinerea (0.00003 ppm) it was 1%; with Rhizoctonia solani (0.0000001 ppm), 26%; with Gibberella zeae (0.0000001 ppm), 35%; in the test with Pyricularia oryzae (0.00003 ppm), 4%.
For `Cc1nn(C)c(F)c1C(=O)Nc1ccccc1C(C)CC(C)C` (stereo not shown) [N-[2-(1,3-Dimethylbutyl)phenyl]-5-fluor-1,3-dimethyl-1H-pyrazol-4-carboxamid], in the test on Botrytis cinerea (0.001 ppm), the Efficacy in % came to 17%.
Consider `CON=C(C(=O)OC)c1ccccc1CON=C(C)c1cccc(C(F)(F)F)c1` [Trifloxystrobin], for which the Efficacy in % with Pyricularia oryzae (0.3 ppm) is listed as 58%.
In turn, `COCC(=O)N(c1c(C)cccc1C)C(C)C(=O)OC` (stereo not shown) [Metalaxyl] returned an Efficacy in % with Rhizoctonia solani (0.001 ppm) of 27%.
`OC(Cc1ccccc1Cl)(Cn1nc[nH]c1=S)C1(Cl)CC1` (stereo not shown) [Prothioconazole] displayed an Efficacy in % in the test with Botrytis cinerea (0.3 ppm) of 40%.
